# In patent US20170232115A1 (priority 2011, published 2017):
# No end group written: not given here.
# Key:
# [1] = molecular target: hepatocyte growth factor receptor (c-Met) (Homo sapiens, UniProt P08581); conditions: peptide identified by phage display
# [2] = cited from earlier work
# [3] = In vitro transdermal permeation, modified Franz diffusion cells, HPLC; assay type: in vitro ADME, human
# Description: Finally, a number of these cosolvent formulations were evaluated for their in vitro transdermal permeation properties (FIG. 3X2). Note that these cosolvents are also known to function as permeability enhancers in some formulations (10-1 1). For this series of experiments, human skin obtained from abdominoplastic surgery was mounted on modified Franz diffusion cells and drug permeation was determined as a function of time using high performance liquid chromatography.
# The Franz diffusion cell is an essential tool in the field of transdermal drug delivery. Patient-derived skin is placed between the cell cap and the solution chamber. The cell cap is exposed to the environment allowing the stratum corneum to also be exposed to the environment. The solution chamber is filled with an isotonic diffusion buffer. Additionally the solution chamber has an injection port that allows for difhsion buffer to be removed without disturbing the setup. Finally, the solution chamber is surrounded by a water jacket that allows for temperature control. The Franz diffusion cell allows for in vitro studies of transdennal delivery to be carried out using physiological conditions. Note that penetration of any solute through the patient-derived skin into the difhsion buffer is equivalent to that solute reaching systemic circulation in an in vivo system. […] Determination of silica content in different layers of the skin will be determined using enzymatic tissue digestion, and inductively coupled plasma mass spectroscopy (ICP mass spec). Both the SLB and nanoporous particle core can be fluorescently tagged to allow for confocal microscopy. In addition, the skin samples can be microtomed after treatment and incubation with protocells so that they can be imaged using TEM.
# Chain of hepatocyte growth factor receptor (c-Met) (P08581 25-932): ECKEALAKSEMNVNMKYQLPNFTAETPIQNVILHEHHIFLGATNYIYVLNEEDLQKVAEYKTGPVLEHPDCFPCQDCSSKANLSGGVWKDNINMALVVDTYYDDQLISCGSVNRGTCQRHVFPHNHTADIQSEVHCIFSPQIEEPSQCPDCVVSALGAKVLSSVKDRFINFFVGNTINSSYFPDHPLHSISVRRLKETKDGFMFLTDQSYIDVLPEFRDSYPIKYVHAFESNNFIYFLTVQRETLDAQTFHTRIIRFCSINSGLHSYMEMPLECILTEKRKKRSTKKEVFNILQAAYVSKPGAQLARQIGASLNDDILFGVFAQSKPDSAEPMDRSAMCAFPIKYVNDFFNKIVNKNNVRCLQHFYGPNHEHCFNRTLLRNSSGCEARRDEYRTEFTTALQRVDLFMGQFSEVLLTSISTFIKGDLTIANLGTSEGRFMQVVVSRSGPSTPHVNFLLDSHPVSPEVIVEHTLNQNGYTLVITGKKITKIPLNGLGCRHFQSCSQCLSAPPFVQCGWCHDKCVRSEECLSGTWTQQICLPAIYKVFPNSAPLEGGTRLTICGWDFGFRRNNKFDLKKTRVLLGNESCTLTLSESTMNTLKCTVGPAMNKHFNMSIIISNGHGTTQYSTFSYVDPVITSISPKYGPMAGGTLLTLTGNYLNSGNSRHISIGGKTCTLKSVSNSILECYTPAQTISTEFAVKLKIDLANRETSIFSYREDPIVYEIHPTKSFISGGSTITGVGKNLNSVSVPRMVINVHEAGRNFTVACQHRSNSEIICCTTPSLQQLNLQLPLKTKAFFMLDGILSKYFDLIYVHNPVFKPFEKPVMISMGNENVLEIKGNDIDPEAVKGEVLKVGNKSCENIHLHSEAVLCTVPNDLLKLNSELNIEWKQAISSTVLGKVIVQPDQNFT
compound,measurement,setting,value
ASVHFPP [MC40],affinity for hepatocyte growth factor receptor (c-Met),[1],nanomolar affinity
CN1CCCC1c1cccnc1 (stereo not drawn) [Nicotine],solubility in H2O,[2],miscible in H2O
CC(C)Cc1ccc(C(C)C(=O)O)cc1 (stereo not drawn) [ibuprofen],solubility in H2O,[2],insoluble in H2O
Cc1ccc(NC(=O)c2ccc(CN3CCN(C)CC3)cc2)cc1Nc1nccc(-c2cccnc2)n1 [Imatinib],permeability through the skin,[3]; DMSO,highest permeability
same,flux (rate of permeation through the skin),[3]; DMSO formulation,0.225 μg/cm2hr
same,permeation through the skin,"[3]; water (pH 7) as solvent system, 24 hours",no imatinib permeated through the skin
